Measurements reported in patent publication US4624960A, “Sedative having analgesic and bradycardiac properties” (Boehringer Ingelheim Vetmedica GmbH, priority 1984, dated 1986).
Where a name gives a salt, the structure may show the parent alone.

Experiments:
Poultry = assay: Sedation in poultry, activity vs dosage; format: in vivo
Source text: (§1) The following table sets forth the correlation between activity and dosage of 2-[(2-bromo-6-fluorophenyl)-imino]-imidazolidine hydrochloride: […]

Bradycardiac Effect = format: in vivo
Cattle (calf) = assay: Sedation and analgesia in cattle (calf), activity vs dosage; format: in vivo; settings: for Effect: analgesia / Effect: sedation / Effect: sleep: cattle (calf)
Source text: as §1

Calf = assay: Premedication for surgical intervention (hernia umbilicalis) in calf; format: in vivo; settings: 0.01 mg/kg i.v., operation 20 minutes after injection
Source text: as §1

Pig = assay: Sedation and analgesia in pig, activity vs dosage; format: in vivo
Source text: as §1

[1] = Writhing Test (analgesic effect); format: in vivo
Horse = assay: Sedation and analgesia in horse, activity vs dosage; format: in vivo
Source text: as §1

[2] = Bradycardiac effect (general statement); settings: in vivo

SMILES: Cl.Fc1cccc(Br)c1N=C1NCCN1 [2-[(2-Bromo-6-fluorophenyl)-imino]-imidazolidine hydrochloride]
- Effect: sedation (Poultry; 2.0 mg/kg i.m.): strong sedation
- Effect: sedation (Poultry; 2.0 mg/kg p.o.): good sedation
- Effect: sedation (Poultry; 0.01-0.1 mg/kg i.m.): weak sedation
- Effect: sedation (Poultry; 0.1-0.5 mg/kg i.m.): good sedation
- Effect: sedation (Poultry; 0.5-1.0 mg/kg i.m.): very good sedation
- Effect: sedation (Poultry; 0.5-1.0 mg/kg p.o.): good sedation
- ED60 (Bradycardiac Effect): 3 µg/kg
- Effect: depth of sedation (Cattle (calf); calf, 0.04 mg/kg p.o.): very good depth of sedation
- Effect: rousability (Cattle (calf); calf, 0.04 mg/kg p.o.): animal cannot be roused
- Effect: analgesia (Cattle (calf); 0.006 mg/kg i.v., i.m.): no analgesia
- Effect: sedation (Cattle (calf); 0.006 mg/kg i.v., i.m.): low-level sedation
- Effect: sedation (Cattle (calf); 0.008 mg/kg i.m.): good sedation
- Effect: sleep (Cattle (calf); 0.008 mg/kg i.m.): deep
- Effect: sedation (Cattle (calf); 0.009 mg/kg i.m.): very good sedation
- Effect: sleep (Cattle (calf); 0.009 mg/kg i.m.): deep sleep
- Effect: analgesia (Cattle (calf); 0.009 mg/kg i.m., i.v. result: not total): as with i.v.
- Effect: analgesia (Cattle (calf); 0.009 mg/kg i.v.): not total
- Effect: sedation (Cattle (calf); 0.009 mg/kg i.v.): very good sedation
- Effect: sleep (Cattle (calf); 0.009 mg/kg i.v.): deep sleep
- Effect: analgesia (Cattle (calf); 0.01 mg/kg i.m.): moderate analgesia
- Effect: sedation (Cattle (calf); 0.01 mg/kg i.m.): very good sedation
- Effect: analgesia (Cattle (calf); 0.01 mg/kg i.v.): moderate analgesia
- Effect: sedation (Cattle (calf); 0.01 mg/kg i.v.): very good sedation
- Effect: analgesia during and after the operation (Calf): good
- Effect: sedation during and after the operation (Calf): good
- Effect: analgesia (Pig; 0.01-0.03 mg/kg i.m.): weak
- Effect: sedation (Pig; 0.01-0.03 mg/kg i.m.): weak sedation
- Effect: sedation (Pig; 0.01-1.0 mg/kg i.m.): strong sedation
- Effect: analgesia (Pig; 0.03-0.06 mg/kg i.m.): rather weaker
- Effect: sedation (Pig; 0.03-0.06 mg/kg i.m.): good sedation
- Effect: analgesia (Pig; 0.06-0.1 mg/kg i.m.): good
- Effect: sedation (Pig; 0.06-0.1 mg/kg i.m.): very good sedation
- ED50 [1]: 4 µg/kg
- Effect: analgesia (Horse; 0.03 mg/kg i.m.): no
- Effect: sedation (Horse; 0.03 mg/kg i.m.): light sedation
- Effect: analgesia (Horse; 0.03 mg/kg i.v.): slight
- Effect: sedation (Horse; 0.03 mg/kg i.v.): light sedation
- Effect: analgesia (Horse; 0.06 mg/kg i.m.): rather weaker analgesia
- Effect: sedation (Horse; 0.06 mg/kg i.m.): moderate sedation
- Effect: analgesia (Horse; 0.06 mg/kg i.v.): good
- Effect: sedation (Horse; 0.06 mg/kg i.v.): strong sedation
- Effect: analgesia (Horse; 0.07 mg/kg i.v.): good
- Effect: sedation (Horse; 0.07 mg/kg i.v.): strong sedation
- Effect: analgesia (Horse; 0.08 mg/kg i.m.): good analgesia
- Effect: sedation (Horse; 0.08 mg/kg i.m.): strong sedation

SMILES: Clc1cccc(Cl)c1N=C1NCCN1 [2-[(2,6-Dichlorophenyl)-imino]-imidazolidine.HCl, reference compound]
- ED60 (Bradycardiac Effect): 10 µg/kg
- ED50 [1]: 17 µg/kg

SMILES: Fc1cccc(Br)c1N=C1NCCN1 [2-[(2-bromo-6-fluorophenyl)-imino]-imidazolidine]
- bradycardiac effect [2]: marked bradycardiac effect
